# Laboratory results from patent US7189518B2, “Soluble CD40L(CD154) as a prognostic marker of atherosclerotic diseases” (The Brigham and Women's Hospital, Inc., priority 2001, dated 2007).
# Assays:
# Assay type in all cases: cell-based
# [1] = system: human vascular EC, SMC, and MØ; assay: Western blot of CD40 and CD40L protein expression in cultured human vascular cells; conditions: for Concentration required to reduce CD40/CD40L expression: higher than for cerivastatin
# Protocol: Viability of the cultures was determined by trypan blue (Sigma, St. Louis, Mo.) exclusion count as well as an oligonucleosome formation assay (Cell Death Detection ELISA, Boehringer Mannheim, Germany).
# Culture lysates (50 μg total protein/lane) and supernatants were separated by SDS-PAGE and blotted to polyvinylidene difluoride membranes (Bio-Rad, Hercules, Calif.) using a semi-dry blotting apparatus (3 mA/cm^2, 30 min; Bio-Rad, Hercules, Calif.). Blots were blocked and primary (mouse-anti-human CD40 or CD40L; both 1:1,000; PharMingen, San Diego, Calif.) antibodies were added in 5% defatted dry milk/PBS/0.1% Tween 20. After 1 h, blots were washed three times (PBS/0.1% Tween 20) and secondary, peroxidase-conjugated, goat-anti-mouse antibody (Jackson Immunoresearch, West Grove, Pa.) was added (1 h). Finally, blots were washed and immunoreactive proteins were visualized using the Western blot chemiluminescence system (NEN™, Boston, Mass.). Data were verified by employing anti-CD40/-CD40L antibodies from Santa Cruz (Santa Cruz, Calif.).
# [2] = system: human vascular EC, as well as MØ; assay: Flow cytometry of CD40 and CD40L cell surface expression
# Protocol: (§1) Human vascular EC and SMC were isolated from saphenous veins and cultured as described previously.^4,26 Mononuclear phagocytes (MØ) were isolated from leukocyte concentrates by density gradient centrifugation employing Lymphocyte Separation Medium (Organon-Teknika, Durham, N.C.) and were cultured (10 days) in RPMI 1640 (BioWhittaker, Walkersville, Md.) containing 2% human serum (Sigma; St. Louis, Mo.).^26 All cell types were cultured 24 h before and during the experiment in media lacking serum. Viability of the cultures was determined by trypan blue (Sigma, St. Louis, Mo.) exclusion count as well as an oligonucleosome formation assay (Cell Death Detection ELISA, Boehringer Mannheim, Germany).
# Human vascular EC, SMC, or MØ were washed with ice-cold PBS, harvested by trypsinization, and fixed (PBS/4% paraformaldehyde, 15 min). Subsequently, the cells were washed once with PBS/2% BSA before being incubated (1 h, 4° C.) with either buffer alone or FITC-conjugated control IgG, mouse-anti-human CD40, or mouse-anti-human CD40L antibody (1 μg/ml; PharMingen, San Diego, Calif.). Finally, cells were washed with PBS/2% BSA and analyzed in a Becton Dickinson FACSCAN® flow cytometer employing […]® software (Becton Dickinson; San Jose, Calif.). At least 20,000 viable cells per condition were analyzed.
# [3] = system: human vascular EC and MØ; assay: RT-PCR of CD40 and CD40L mRNA expression in cultured human vascular cells
# Protocol: as §1
# Total RNA isolated from cultured EC, SMC, or MØ employing RNAzol (Tel-Test; Friendswood, Tex.) was assessed for purity and yield spectrophotometrically (2100 Bioanalyzer, Agilent Technologies, Wilmington, Del.) and was reverse-transcribed (2 μg total RNA; 50 min, 42° C.) employing Superscript II Reverse Transcriptase (LifeTechnologies, Carlsbad, Calif.). PCR was performed for 35 cycles at 95° C. (120 sec), 62° C. (120 sec), and 72° C. […] PCR products were analyzed on ethidium bromide-containing 1.3% agarose gels and visualized by UV transillumination. […]
compound,measurement,setting,value
CC(C)c1c(C(=O)Nc2ccccc2)c(-c2ccccc2)c(-c2ccc(F)cc2)n1CC[C@@H](O)C[C@@H](O)CC(=O)O [atorvastatin],Concentration required to reduce CD40/CD40L expression,[1]; Western blot,100 nM
same,Constitutive as well as cytokine-induced expression of CD40 and CD40L protein and transcript,"[1]; human vascular EC, SMC, and MØ, summary in the discussion, also covers RT-PCR",significantly diminished
same,Order of the statins by concentration needed for equal reduction in CD40/CD40L expression,[2],cerivastatin>simvastatin=atorvastatin
CC(O)(CCO)CC(=O)O (centres unmarked) [Mevalonate],Effect on the expression of CD40 and CD40L transcripts diminished by statins,[3],reversed
same,Effect on the expression of CD40 and CD40L diminished by statins,"[1]; protein, Western blot",reversed
CCC(C)(C)C(=O)O[C@H]1C[C@@H](C)C=C2C=C[C@H](C)[C@H](CC[C@@H]3C[C@@H](O)CC(=O)O3)[C@H]21 [simvastatin],Concentration required to reduce CD40/CD40L expression,[1]; Western blot,100 nM
COCc1c(C(C)C)nc(C(C)C)c(/C=C/[C@@H](O)C[C@@H](O)CC(=O)O)c1-c1ccc(F)cc1 [cerivastatin],Concentration at which the constitutive as well as IL-1β/TNFα/IFNγ-induced expression of the receptor (CD40) was diminished,"[1]; EC, Western blot",> 2 nM
same,Concentration for maximal inhibition of CD40 expression,"[1]; EC, Western blot",10 to 50 nM
